Here are results for five molecules from US10780174B2, “Lipid-linked prodrugs” (The University of British Columbia, priority 2015, dated 2020).

One may read the IC50 as the point on the concentration scale where inhibition reaches its midpoint.

A short description of series [1]: Particle size and polydispersity of LNP containing prodrug (dynamic light scattering). The conditions noted are these: PDI in brackets; for Particle size (PDI) PC-Chol LNP: LD-DEX prodrug in PC-Chol LNP; for Particle size (PDI) [ionizable LNP]: LD-DEX prodrug in ionizable LNP. The series is classed as physicochemical. As for the experimental part: (§1) Preparation of LNP Systems: PC-Chol LNP systems were prepared by rapidly mixing POPC, cholesterol, lipid-linked prodrug and PEG-DMPE (in molar ratio of 49/39/10/2) dissolved in ethanol with phosphate-buffered saline using a T-junction mixer. Formulations were dialyzed against phosphate-buffered saline to remove residual ethanol and to raise the pH to 7.4. PC-TO and ionizable LNP systems were prepared in the same way except that the lipid compositions for these systems are: POPC, triolein, lipid-linked prodrug and PEG-DSPE (in molar ration of 19/70/10/1), and ionizable lipid, DSPC, cholesterol, lipid-linked prodrug and PEG-DMPE (in molar ration of 40/10/38.5/10/1.5), respectively.
Characterization of LNP: Particle size was determined by dynamic light scattering using a Malvern Zetasizer Nano ZS™ (Malvern, UK) following buffer exchange into phosphate-buffered saline. Number-weighted size and distribution data was used. Lipid concentrations were determined by measuring total cholesterol using the Cholesterol E enzymatic assay kit from Wako Chemicals USA™ (Richmond, Va.). The morphology of LNP formulations containing LD-DEX was analyzed by cryogenic-transmission electron microscopy (cryoTEM) as described previously [Leung et al. (2012)].

Series [2] in a line: Prodrug incorporation (entrapment) in lipid nanoparticles, UHPLC. Format: physicochemical. The note with it: for % Entrapment PC-Chol LNP: LD-DEX prodrug in PC-Chol LNP; for % Entrapment [ionizable LNP]: LD-DEX prodrug in ionizable LNP. As for the experimental part:
as §1
(§2) Quantitation of prodrugs by HPLC: LD-DEX/DTX were quantified by ultra high-pressure liquid chromatography (UHPLC) using a Waters Acquity™ UPLC system equipped with a photodiode array detector (PDA) and evaporative light scattering (ELS) detector; Empower™ data acquisition software version 3.0 was used (Waters™, USA). Separations were performed using a Waters Acquity™ BEH C18 column (1.7 μm, 2.1×100 mm) at a flow rate of 0.5 ml/min, with mobile phases A and B consisting of methanol/10 mM ammonium bicarbonate (80/20% v/v) and methanol/acetonitrile (80/20% v/v), respectively. The mobile phases were delivered at a programmed linear gradient (45%-80% B in 1 min then to 99% B at 2 min) at a column temperature of 55° C. The analyte was measured by PDA (at a wavelength of 239 nm) and ELS detector against calibration standard curves. For the analysis of LD-DEX/DTX breakdown to active compound, linear gradients of 20/80% to 100/0% (acetonitrile/water, v/v) over 7 min were used.

Series [3] in a line: In vitro degradation of lipid-linked prodrugs in LNP, mouse plasma. Format: in vitro ADME. The note with it: LNP; for prodrug cleavage/degradation after 1 h in plasma: 37° C., mouse plasma. The protocol:
as §2
To determine the biodegradability of the dexamethasone or docetaxel prodrugs (LD-DEX/DTX), 1 mg/mL LNP was incubated in mouse plasma (Cedarlane™, Burlington, Ontario) or PBS supplemented with 10 U of purified esterase (Sigma-Aldrich™, St. […] Post incubation, four volumes of chloroform/methanol (2:1) was added and the mixture was vortex mixed. Samples were centrifuged at 13,000 g for 5 minutes and the upper phase was discarded. The remaining organic phase was dried down under vacuum and the resulting lipid extract was dissolved in methanol/acetonitrile (1:1). Quantity of parent LD-DEX/DTX compound was determined by ultra high pressure liquid chromatography on a Waters Acquity™ H-Class UPLC System™ equipped with a BEH C18 column and a photodiode array detector.

The test system of series [4] is immunostimulatory effects of LNP-CpG (plasma cytokines). Briefly: In vivo immune suppression by LD-DEX prodrugs, LNP-CpG model. The conditions noted are these: mice, i.v., 10 mg/kg of CpG, 2 h post injection. Also on record: species or system C57Bl/6 mice. As for the experimental part:
6-8 Weeks old female C57Bl/6 mice (Charles River Laboratories™, Wilmington, Mass.) were injected intravenously with lipid nanoparticles containing CpG DNA oligonucleotides (10 mg/kg), mRNA (3 mg/kg) or plasmid DNA (pDNA) (1 mg/kg). Animals were euthanized 2 hours post-injection and blood was collected via intracardiac or saphenous sampling. Plasma was separated from whole blood by centrifugation and analyzed for proinflammatory cytokines using the Mesoscale Proinflammatory Multiplex™ kit (Rockville, Md.) according to manufacturer's instruction. All procedures were approved by the Animal Care Committee at the University of British Columbia and were performed in accordance with guidelines established by the Canadian Council on Animal Care.

Series [5] concerns IL1β expression in RAW 264.7 mouse macrophage cells. Kind of series: In vitro immune suppression, LPS-treated RAW 264.7 cells, IL1β qRT-PCR. Format: cell-based. The note with it: 2 ng/mL LPS, 4 h. The protocol: RAW 264.7 mouse macrophage cells were seeded at 250,000 cells per mL on 12-well plates and incubated at 37° C. overnight. Lipopolysaccharide (LPS) was dissolved in phosphate buffered saline at a concentration of 2 μg/ml. Cells were treated with lipid nanoparticles containing LD-DEX prodrugs and 2 ng/ml of LPS for 4 hours. This LPS concentration was chosen due to its ability to increase IL1β expression approximately 1000 times as compared to untreated cells. At the end of the incubation period, culture medium was aspirated and cellular RNA was extracted using the Purelink RNA™ extraction kit according to manufacturer's protocol (Life Technologies™, Burlington, ON). The concentration of extracted RNA was determined using a Nanodrop Lite™ (Thermo Fisher™). 1 μg of RNA was converted to cDNA using the High Capacity cDNA Reverse Transcription kit (Life Technologies™, Burlington, ON). In order to validate the sample preparation, a no template control and a negative reverse transcriptase control were included. The cDNA was then quantified using comparative real-time qPCR where the Ct (threshold cycle) values are converted to relative quantity using the 2-ΔΔCT method. The primer-probe sets were designed to bind to cDNA of Interleukin-1β(IL1β). Hypoxanthine-guanine phosphoribosyltransferase (HPRT) was chosen as the endogenous normalizer gene, which is known to maintain consistent levels with varying treatments.

Series [6] in a line: In vitro dissociation of lipid-linked prodrugs from LNP in human plasma. The note with it: human plasma over 24 h, 37° C., PC-Chol LNP or ionizable LNP. Format: in vitro ADME. The protocol: LNP were incubated for 0, 3, 5 and 24 h at 37° C. in 400 μL of sterile human plasma (Cedarlane™, Burlington, Ontario) at a final lipid concentration of 1.2 mM. At the various time-points, samples were loaded onto a 1.5×27 cm Sepharose CL-4B column (Sigma-Aldrich™, St. Louis, Mo.). 30×2 mL fractions were collected. Three volumes of methanol/acetonitrile (1:1) were added to each fraction and analyzed by UHPLC to determine the residual LD-DEX/DTX as described above.

Series [7] concerns OVCAR3 cells. Briefly: In vitro growth inhibition by LD-DTX prodrugs, cell viability assay. The series is classed as cell-based. The conditions noted are these: Homo sapiens, OVCAR-3, 48 h, Ovcar3 cells. The protocol: OVCAR3 cells were obtained from ATCC (Manassas, Va.). Cells were seeded at 12,000 cells per well on 96-well plates and treated with free docetaxel, prodrugs, lipid nanoparticle formulations with or without prodrugs at 0 to 15 μM of docetaxel for 48 h. Cell viability was determined by a colorimetric assay, based on the tetrazolium salt MIT (3-(4,5-dimethylthiazol-2-yl)-2,5-diphenyltetrazolium bromide), as described previously [Mossman 1983].

In series [8] the test system is purified porcine esterase. Briefly: In vitro degradation of lipid-linked prodrugs in LNP, purified esterase in PBS. The note with it: LNP, 24 h incubation.

With `CCCCC/C=C\C/C=C\CCCCCCCCOCCCCSCC(=O)[C@@]1(O)[C@H](C)C[C@H]2[C@@H]3CCC4=CC(=O)C=C[C@]4(C)[C@@]3(F)[C@@H](O)C[C@@]21C` [LD07-DEX, (8S,9R,10S,11S,13S,14S,16R,17R)-9-fluoro-11,17-dihydroxy-10,13,16-trimethyl-17-(2-((4-(linoleyloxy)butyl)thio)acetyl)-6,7,8,9,10,11,12,13,14,15,16,17-dodecahydro-3H-cyclopenta[a]phenanthren-3-one], in series [1], the “Particle size (PDI) PC-Chol LNP” value is listed as 56 (0.03) nm and the “Particle size (PDI) [ionizable LNP]” value was “[47 (0.04)] nm”. In addition, in series [2], the “% Entrapment PC-Chol LNP” value amounted to 90% and the “% Entrapment [ionizable LNP]” value was “[88] %”. The “prodrug cleavage/degradation after 1 h in plasma” value (from here on “prodrug cleavage/degradation”) in series [3] is “no degradation”. In addition, the “plasma TNFα and KC/GRO levels versus control LNP-CpG” value in series [4] is on record as “did not exhibit any immunosuppressive effects”. Moreover, the “IL1β expression versus control LNP without prodrug” value in series [5] is on record as “IL1β expression at a similar level to control”.
Take `CCCCCCCC/C=C\CCCCCCCCOC(=O)CCC(=O)OCC(=O)[C@@]1(O)[C@H](C)C[C@H]2[C@@H]3CCC4=CC(=O)C=C[C@]4(C)[C@@]3(F)[C@@H](O)C[C@@]21C` [LD13-DEX, oleyl 2-((8S,9R,10S,11S,13S,14S,16R,17R)-9-fluoro-11,17-dihydroxy-10,13,16-trimethyl-3-oxo-6,7,8,9,10,11,12,13,14,15,16,17-dodecahydro-3H-cyclopenta[a]phenanthren-17-yl)-2-oxoethyl succinate]: in series [1], the “Particle size (PDI) PC-Chol LNP” value is reported as 61 (0.03) nm and the “Particle size (PDI) [ionizable LNP]” value is “[49 (0.07)] nm”. For the same molecule, in series [2], the “% Entrapment PC-Chol LNP” value was 100% and the “% Entrapment [ionizable LNP]” value was “[96] %”. For the same molecule, the “prodrug cleavage/degradation” value in series [3] was “partially degraded”. Moreover, the “plasma cytokine (TNFα, IL-6 and IL-10) levels versus control LNP-CpG” value in series [4] is “able to suppress plasma cytokine”. The “IL1β expression versus control LNP without prodrug” value in series [5] is reported as “able to reduce IL1β expression”.
`CCCCCCCCCCCCCCCCOC(=O)CCC(=O)OCC(=O)[C@@]1(O)[C@H](C)C[C@H]2[C@@H]3CCC4=CC(=O)C=C[C@]4(C)[C@@]3(F)[C@@H](O)C[C@@]21C` [LD14-DEX, palmityl 2-((8S,9R,10S,11S,13S,14S,16R,17R)-9-fluoro-11,17-dihydroxy-10,13,16-trimethyl-3-oxo-6,7,8,9,10,11,12,13,14,15,16,17-dodecahydro-3H-cyclopenta[a]phenanthren-17-yl)-2-oxoethyl succinate]: in series [1], the “Particle size (PDI) PC-Chol LNP” value was 67 (0.05) nm and the “Particle size (PDI) [ionizable LNP]” value was “[47 (0.06)] nm”. Also, in series [2], the “% Entrapment PC-Chol LNP” value is on record as 100% and the “% Entrapment [ionizable LNP]” value is “[95] %”. Further, in series [3], the “prodrug cleavage/degradation” value was “partially degraded”. Further, in series [4], the “plasma cytokine (TNFα, IL-6 and IL-10) levels versus control LNP-CpG” value was “able to suppress plasma cytokine”. Further, in series [5], the “IL1β expression versus control LNP without prodrug” value is “able to reduce IL1β expression”.
On to `CCCCCCCCCCCCCC(=O)OCC(COC(=O)CCC(=O)OCC(=O)[C@@]1(O)[C@H](C)C[C@H]2[C@@H]3CCC4=CC(=O)C=C[C@]4(C)[C@@]3(F)[C@@H](O)C[C@@]21C)OC(=O)CCCCCCCCCCCCC` (stereo partly drawn) [LD17-DEX, 2,3-dimyristroylpropyl (2-((8S,9R,10S,11S,13S,14S,16R,17R)-9-fluoro-11,17-dihydroxy-10,13,16-trimethyl-3-oxo-6,7,8,9,10,11,12,13,14,15,16,17-dodecahydro-3H-cyclopenta[a]phenanthren-17-yl)-2-oxoethyl) succinate], for which the “Particle size (PDI) [ionizable LNP]” value in series [1] is “[48 (0.06)] nm”. Besides, the “% Entrapment [ionizable LNP]” value in series [2] is “[89] %”. Also, in series [3], the “prodrug cleavage/degradation” value is “not susceptible to degradation”. In addition, the “plasma cytokine (TNFα, IL-6 and IL-10) levels versus control LNP-CpG” value in series [4] is “able to suppress plasma cytokine”. Also, in series [5], the “IL1β expression versus control LNP without prodrug” value is reported as “able to reduce IL1β expression”.
As for `CCCCCCCC/C=C\CCCCCCCCOC(=O)CCC(=O)O[C@@H](C(=O)O[C@H]1C[C@@]2(O)[C@@H](OC(=O)c3ccccc3)[C@@H]3[C@]4(OC(C)=O)CO[C@@H]4C[C@H](O)[C@@]3(C)C(=O)[C@H](O)C(=C1C)C2(C)C)[C@@H](NC(=O)OC(C)(C)C)c1ccccc1` [LD18-DTX, (2R,3S)-1-(((2aR,4S,4aS,6R,9S,11S,12S,12aR,12bS)-12b-acetoxy-12-(benzoyloxy)-4,6,11-trihydroxy-4a,8,13,13-tetramethyl-5-oxo-2a,3,4,4a,5,6,9,10,11,12,12a,12b-dodecahydro-1H-7,11-methanocyclodeca[3,4]benzo[1,2-b]oxet-9-yl)oxy)-3-((tert-butoxycarbonyl)amino)-1-oxo-3-phenylpropan-2-yl(Z)-octadec-9-en-1-ylsuccinate], the “prodrug cleavage/degradation” value in series [3] was “largely not degraded”. In addition, the “release of active drug (UPLC chromatogram) in mouse plasma” value in series [3] (24 h incubation) is recorded as “active docetaxel (DTX) was observed”. The “prodrug dissociation rate from LNP” value in series [6] is “dissociated at a faster rate from lipid nanoparticles than LD22-DTX”; in series [6] (listed as LD18), “dissociates from LNP faster than LD22”. Besides, the IC50 was found to be 23.9 nM in series [7] (Free drugs), 37.3 nM in series [7] (PC-Chol LNP), 131 nM in series [7] (PC-TO LNP) and 64 nM in series [7] (ionizable LNP). Further, the “release of active drug (UPLC chromatogram) in purified esterase” value in series [8] is recorded as “active docetaxel (DTX) was observed”.
